In patent US6610860B2, “C7 ester substituted taxanes” (FSU Research Foundation, Inc., priority 2000, dated 2003):

System: HCT116 cells
Experiment: In vitro cytotoxicity measured by the cell colony formation assay
Format: cell-based
Conditions: 72 h drug incubation, colonies counted after 7 days, ID50 = drug concentration producing 50% inhibition of colony formation, read-out: IN VITRO ID 50 (nm) HCT116
Description: In Vitro Cytotoxicity Measured by the Cell Colony Formation Assay
Four hundred cells (HCT116) were plated in 60 mm Petri dishes containing 2.7 mL of medium (modified McCoy's 5a medium containing 10% fetal bovine serum and 100 units/mL penicillin and 100 µg/mL streptomycin). The cells were incubated in a CO2 incubator at 37° C. for 5 h for attachment to the bottom of Petri dishes. The compounds identified in Example 2 were made up fresh in medium at ten times the final concentration, and then 0.3 mL of this stock solution was added to the 2.7 mL of medium in the dish. The cells were then incubated with drugs for 72 h at 37° C. At the end of incubation the drug-containing media were decanted, the dishes were rinsed with 4 mL of Hank's Balance Salt Solution (HBSS), 5 mL of fresh medium was added, and the dishes were returned to the incubator for colony formation. The cell colonies were counted using a colony counter after incubation for 7 days.

## CC(=O)O[C@H]1C(=O)[C@@]2(C)[C@H]([C@H](OC(=O)c3ccccc3)[C@]3(O)C[C@H](OC(=O)[C@H](O)[C@@H](NC(=O)c4ccccc4)c4ccccc4)C(C)=C1C3(C)C)[C@]1(OC(C)=O)CO[C@@H]1C[C@@H]2O [taxol]
  IC50: 2.1 nM
